Test results from publication PMC6704710, “Preclinical evaluation of 3D185, a novel potent inhibitor of FGFR1/2/3 and CSF-1R, in FGFR-dependent and macrophage-dominant cancer models” (Journal of Experimental & Clinical Cancer Research : CR, 2019).

Assays:
[1] = target: T1, cKit(h) (Homo sapiens, UniProt P10721); assay: Eurofins kinase panel; assay type: biochemical; details: read-out: Inhibition rate (%)
T1 construct: purchased Eurofins (KinaseProfiler)

[2] = target: T2, PKCμ(h) (Homo sapiens, UniProt Q15139); assay: Eurofins kinase panel; assay type: biochemical; details: read-out: Inhibition rate (%)
T2 construct: purchased Eurofins (KinaseProfiler)
T2 sequence (Q15139 1-912): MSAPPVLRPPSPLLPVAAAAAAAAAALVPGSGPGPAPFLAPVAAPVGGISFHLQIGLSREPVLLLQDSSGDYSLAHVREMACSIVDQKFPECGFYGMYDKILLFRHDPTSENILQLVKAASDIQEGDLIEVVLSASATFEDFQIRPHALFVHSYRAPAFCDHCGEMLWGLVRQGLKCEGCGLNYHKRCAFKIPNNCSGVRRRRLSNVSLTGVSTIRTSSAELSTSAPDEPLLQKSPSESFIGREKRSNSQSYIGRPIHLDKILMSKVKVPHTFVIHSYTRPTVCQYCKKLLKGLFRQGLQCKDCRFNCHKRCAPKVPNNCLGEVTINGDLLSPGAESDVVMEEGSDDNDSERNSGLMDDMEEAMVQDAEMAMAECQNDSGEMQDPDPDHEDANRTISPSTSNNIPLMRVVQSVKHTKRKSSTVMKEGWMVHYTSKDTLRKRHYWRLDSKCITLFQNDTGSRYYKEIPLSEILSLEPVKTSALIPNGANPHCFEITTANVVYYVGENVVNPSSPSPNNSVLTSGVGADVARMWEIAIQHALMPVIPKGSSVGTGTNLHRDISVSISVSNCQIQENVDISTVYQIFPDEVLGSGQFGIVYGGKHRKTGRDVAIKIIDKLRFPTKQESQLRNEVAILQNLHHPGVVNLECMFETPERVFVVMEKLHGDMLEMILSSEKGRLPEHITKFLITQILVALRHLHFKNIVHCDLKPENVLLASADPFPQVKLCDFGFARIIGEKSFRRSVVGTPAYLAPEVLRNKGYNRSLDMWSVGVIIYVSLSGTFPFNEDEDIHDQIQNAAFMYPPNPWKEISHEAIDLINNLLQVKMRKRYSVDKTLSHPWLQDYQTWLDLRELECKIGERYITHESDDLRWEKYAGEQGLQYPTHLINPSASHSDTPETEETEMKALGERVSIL

[3] = target: T3, IKKε(h) (Homo sapiens, UniProt Q14164); assay: Eurofins kinase panel; assay type: biochemical; details: read-out: Inhibition rate (%)
T3 construct: purchased Eurofins (KinaseProfiler)
T3 sequence (Q14164 1-716): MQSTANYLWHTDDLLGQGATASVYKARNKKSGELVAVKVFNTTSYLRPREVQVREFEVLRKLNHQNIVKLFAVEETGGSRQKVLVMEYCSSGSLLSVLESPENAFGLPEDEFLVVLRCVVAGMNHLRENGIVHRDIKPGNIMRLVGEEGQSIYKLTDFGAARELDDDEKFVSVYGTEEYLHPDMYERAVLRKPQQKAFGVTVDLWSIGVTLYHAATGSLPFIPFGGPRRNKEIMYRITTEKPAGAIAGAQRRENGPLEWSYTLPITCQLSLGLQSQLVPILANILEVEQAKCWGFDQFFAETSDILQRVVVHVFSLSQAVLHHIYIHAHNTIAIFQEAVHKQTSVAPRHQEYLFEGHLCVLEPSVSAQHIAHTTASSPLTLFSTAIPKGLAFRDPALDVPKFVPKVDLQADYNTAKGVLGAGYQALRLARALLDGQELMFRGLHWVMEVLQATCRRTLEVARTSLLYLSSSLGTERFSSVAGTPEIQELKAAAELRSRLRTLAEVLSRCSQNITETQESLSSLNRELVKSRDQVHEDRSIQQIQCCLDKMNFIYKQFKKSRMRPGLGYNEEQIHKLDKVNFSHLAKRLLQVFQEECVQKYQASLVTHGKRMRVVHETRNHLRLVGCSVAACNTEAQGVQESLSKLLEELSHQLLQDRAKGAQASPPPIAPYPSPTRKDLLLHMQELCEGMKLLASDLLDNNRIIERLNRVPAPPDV

[4] = target: T4, RIPK2(h) (Homo sapiens, UniProt O43353); assay: Eurofins kinase panel; assay type: biochemical; details: read-out: Inhibition rate (%)
T4 construct: purchased Eurofins (KinaseProfiler)

[5] = target: T5, PKR(h) (Homo sapiens, UniProt P19525); assay: Eurofins kinase panel; assay type: biochemical; details: read-out: Inhibition rate (%)
T5 construct: purchased Eurofins (KinaseProfiler)
T5 sequence (P19525 whole entry): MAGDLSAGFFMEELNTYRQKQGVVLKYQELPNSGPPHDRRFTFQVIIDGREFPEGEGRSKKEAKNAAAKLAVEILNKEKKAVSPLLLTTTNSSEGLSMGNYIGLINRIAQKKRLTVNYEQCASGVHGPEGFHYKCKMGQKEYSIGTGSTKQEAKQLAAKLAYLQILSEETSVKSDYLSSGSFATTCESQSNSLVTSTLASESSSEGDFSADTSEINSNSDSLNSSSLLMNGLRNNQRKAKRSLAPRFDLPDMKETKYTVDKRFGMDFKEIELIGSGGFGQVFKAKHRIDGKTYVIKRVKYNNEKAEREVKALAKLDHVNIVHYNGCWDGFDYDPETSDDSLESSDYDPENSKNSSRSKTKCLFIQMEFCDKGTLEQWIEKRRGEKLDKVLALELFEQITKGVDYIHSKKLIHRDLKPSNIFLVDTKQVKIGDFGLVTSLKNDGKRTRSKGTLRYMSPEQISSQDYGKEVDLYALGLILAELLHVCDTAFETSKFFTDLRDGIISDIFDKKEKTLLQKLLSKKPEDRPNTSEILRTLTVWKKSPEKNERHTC

[6] = target: T6, Lyn(h) (Homo sapiens, UniProt P07948); assay: Eurofins kinase panel; assay type: biochemical; details: read-out: Inhibition rate (%)
T6 construct: purchased Eurofins (KinaseProfiler)
T6 sequence (P07948 whole entry): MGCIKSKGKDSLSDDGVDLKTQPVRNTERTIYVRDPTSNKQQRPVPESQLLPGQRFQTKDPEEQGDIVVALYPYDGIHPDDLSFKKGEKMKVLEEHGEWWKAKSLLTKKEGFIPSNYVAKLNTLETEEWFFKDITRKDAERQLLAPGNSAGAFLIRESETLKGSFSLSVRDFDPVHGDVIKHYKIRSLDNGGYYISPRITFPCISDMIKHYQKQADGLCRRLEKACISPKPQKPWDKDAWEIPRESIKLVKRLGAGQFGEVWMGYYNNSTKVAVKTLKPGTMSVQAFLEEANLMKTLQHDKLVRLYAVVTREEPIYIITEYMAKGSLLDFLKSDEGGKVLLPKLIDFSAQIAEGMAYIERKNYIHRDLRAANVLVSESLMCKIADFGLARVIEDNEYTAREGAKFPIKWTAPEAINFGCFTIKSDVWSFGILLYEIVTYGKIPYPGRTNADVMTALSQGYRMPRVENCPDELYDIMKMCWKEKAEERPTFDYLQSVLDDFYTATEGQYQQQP

[7] = target: T7, MAPKAP-K2(h) (Homo sapiens, UniProt P49137); assay: Eurofins kinase panel; assay type: biochemical; details: read-out: Inhibition rate (%)
T7 construct: purchased Eurofins (KinaseProfiler)
T7 sequence (P49137 whole entry): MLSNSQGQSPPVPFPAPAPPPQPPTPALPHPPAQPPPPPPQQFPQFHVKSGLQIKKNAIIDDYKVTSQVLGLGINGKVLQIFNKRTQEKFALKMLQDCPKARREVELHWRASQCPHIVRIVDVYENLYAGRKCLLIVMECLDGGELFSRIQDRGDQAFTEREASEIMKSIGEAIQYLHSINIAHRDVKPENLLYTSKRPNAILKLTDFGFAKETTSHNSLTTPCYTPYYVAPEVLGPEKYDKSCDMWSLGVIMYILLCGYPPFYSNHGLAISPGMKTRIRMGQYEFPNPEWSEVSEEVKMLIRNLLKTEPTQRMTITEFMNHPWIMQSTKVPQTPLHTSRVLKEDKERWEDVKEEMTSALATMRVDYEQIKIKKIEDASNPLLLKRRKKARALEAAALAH

[8] = target: T8, CDK12/cyclinK(h) (Homo sapiens, UniProt Q9NYV4); assay: Eurofins kinase panel; assay type: biochemical; details: read-out: Inhibition rate (%)
T8 construct: purchased Eurofins (KinaseProfiler)

[9] = target: T9, PAK1(h) (Homo sapiens, UniProt Q13153); assay: Eurofins kinase panel; assay type: biochemical; details: read-out: Inhibition rate (%)
T9 construct: purchased Eurofins (KinaseProfiler)
T9 sequence (Q13153 whole entry): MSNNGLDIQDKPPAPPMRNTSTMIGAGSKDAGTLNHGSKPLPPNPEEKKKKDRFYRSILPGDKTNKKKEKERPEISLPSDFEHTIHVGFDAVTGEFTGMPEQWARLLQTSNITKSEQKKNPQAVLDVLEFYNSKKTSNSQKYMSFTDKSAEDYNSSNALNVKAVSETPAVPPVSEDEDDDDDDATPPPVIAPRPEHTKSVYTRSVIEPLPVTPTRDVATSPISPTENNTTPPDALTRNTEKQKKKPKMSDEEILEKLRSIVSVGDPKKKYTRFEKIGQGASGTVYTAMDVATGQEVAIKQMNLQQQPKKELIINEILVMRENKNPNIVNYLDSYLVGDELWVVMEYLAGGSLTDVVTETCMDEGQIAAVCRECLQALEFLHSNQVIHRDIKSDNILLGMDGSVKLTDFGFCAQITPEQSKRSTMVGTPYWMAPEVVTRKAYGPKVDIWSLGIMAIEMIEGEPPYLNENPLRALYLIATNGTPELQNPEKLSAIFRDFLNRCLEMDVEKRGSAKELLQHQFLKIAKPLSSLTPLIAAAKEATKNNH

[10] = target: T10, ChaK1(h) (Homo sapiens, UniProt Q96QT4); assay: Eurofins kinase panel; assay type: biochemical; details: read-out: Inhibition rate (%)
T10 construct: purchased Eurofins (KinaseProfiler)
T10 sequence (Q96QT4 whole entry): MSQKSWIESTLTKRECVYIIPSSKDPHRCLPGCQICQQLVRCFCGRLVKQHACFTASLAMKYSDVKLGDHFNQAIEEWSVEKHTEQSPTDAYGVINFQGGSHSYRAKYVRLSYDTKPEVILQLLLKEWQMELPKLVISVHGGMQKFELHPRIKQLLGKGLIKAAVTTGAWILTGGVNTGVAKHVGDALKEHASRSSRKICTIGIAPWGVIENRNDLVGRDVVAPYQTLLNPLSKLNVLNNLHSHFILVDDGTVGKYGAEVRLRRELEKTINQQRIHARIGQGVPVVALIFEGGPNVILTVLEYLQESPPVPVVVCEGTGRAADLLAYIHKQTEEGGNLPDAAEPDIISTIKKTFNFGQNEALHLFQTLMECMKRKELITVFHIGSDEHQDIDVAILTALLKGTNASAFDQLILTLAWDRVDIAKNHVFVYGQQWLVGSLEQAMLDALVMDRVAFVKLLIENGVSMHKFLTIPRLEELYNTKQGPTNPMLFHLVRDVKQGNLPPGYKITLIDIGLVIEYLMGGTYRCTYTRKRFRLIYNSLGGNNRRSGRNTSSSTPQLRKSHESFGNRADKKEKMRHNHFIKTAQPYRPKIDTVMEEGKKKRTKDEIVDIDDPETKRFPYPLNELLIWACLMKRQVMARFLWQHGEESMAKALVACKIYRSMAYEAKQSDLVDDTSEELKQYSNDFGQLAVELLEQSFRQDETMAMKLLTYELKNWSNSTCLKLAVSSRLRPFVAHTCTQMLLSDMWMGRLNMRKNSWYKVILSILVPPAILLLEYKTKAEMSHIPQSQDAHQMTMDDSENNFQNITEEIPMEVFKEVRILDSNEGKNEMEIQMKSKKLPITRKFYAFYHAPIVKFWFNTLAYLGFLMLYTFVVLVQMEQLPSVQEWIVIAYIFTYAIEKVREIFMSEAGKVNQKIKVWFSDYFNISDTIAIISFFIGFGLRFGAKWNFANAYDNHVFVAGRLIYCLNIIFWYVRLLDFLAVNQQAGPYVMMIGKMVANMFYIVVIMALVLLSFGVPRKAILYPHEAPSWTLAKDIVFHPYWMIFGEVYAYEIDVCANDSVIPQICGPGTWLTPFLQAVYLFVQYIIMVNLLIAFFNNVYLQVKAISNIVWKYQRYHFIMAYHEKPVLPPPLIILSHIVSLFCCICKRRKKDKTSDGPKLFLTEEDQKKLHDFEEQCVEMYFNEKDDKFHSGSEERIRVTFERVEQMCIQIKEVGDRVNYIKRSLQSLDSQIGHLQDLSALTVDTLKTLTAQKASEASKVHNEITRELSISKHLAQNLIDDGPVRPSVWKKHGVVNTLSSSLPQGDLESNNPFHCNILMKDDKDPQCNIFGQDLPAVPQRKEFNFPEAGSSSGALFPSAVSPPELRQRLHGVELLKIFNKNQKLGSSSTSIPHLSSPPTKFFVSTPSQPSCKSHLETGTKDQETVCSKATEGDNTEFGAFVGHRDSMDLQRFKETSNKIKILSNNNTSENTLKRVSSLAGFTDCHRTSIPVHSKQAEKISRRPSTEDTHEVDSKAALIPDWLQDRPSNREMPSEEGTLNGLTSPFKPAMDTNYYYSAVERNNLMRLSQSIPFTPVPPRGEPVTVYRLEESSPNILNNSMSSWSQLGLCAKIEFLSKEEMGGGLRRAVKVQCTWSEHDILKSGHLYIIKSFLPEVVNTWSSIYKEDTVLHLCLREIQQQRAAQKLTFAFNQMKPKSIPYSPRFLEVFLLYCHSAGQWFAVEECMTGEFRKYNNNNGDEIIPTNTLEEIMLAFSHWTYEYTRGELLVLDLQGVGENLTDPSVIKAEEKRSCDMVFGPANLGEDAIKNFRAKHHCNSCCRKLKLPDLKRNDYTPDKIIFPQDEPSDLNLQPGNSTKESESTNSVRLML

[11] = tested on: PBMC (CSF-2); assay: Macrophage survival (CCK-8); assay type: cell-based; details: Homo sapiens, 168 h, 7 days
Protocol: Murine bone marrow-derived macrophages (BMDMs) and PBMCs were used for cell viability studies. BMDMs were harvested by flushing the tibias and femurs of 6- to 8-week-old C57BL/6 mice and depleting red blood cells (RBCs) by RBC lysis (Biogems). For BMDM survival, the cells were cultured for 7 days in RPMI 1640 containing 10% fetal bovine serum (FBS), 100 U/mL penicillin, 100 μg/mL streptomycin and 100 ng/mL mouse CSF-1 (or CSF-2) with or without the tested compounds. PBMCs were obtained from HemaCare and cultured for 7 days in RPMI 1640 containing 10% fetal bovine serum (FBS), 100 U/mL penicillin, 100 μg/mL streptomycin and 100 ng/mL human CSF-1 (or CSF-2) with or without the tested compounds. Cell viability was measured using the CCK-8 assay. For IL-4/IL-13-induced macrophage survival analysis, viable cells were counted by trypan blue exclusion.

T1 sequence (P10721 26-976): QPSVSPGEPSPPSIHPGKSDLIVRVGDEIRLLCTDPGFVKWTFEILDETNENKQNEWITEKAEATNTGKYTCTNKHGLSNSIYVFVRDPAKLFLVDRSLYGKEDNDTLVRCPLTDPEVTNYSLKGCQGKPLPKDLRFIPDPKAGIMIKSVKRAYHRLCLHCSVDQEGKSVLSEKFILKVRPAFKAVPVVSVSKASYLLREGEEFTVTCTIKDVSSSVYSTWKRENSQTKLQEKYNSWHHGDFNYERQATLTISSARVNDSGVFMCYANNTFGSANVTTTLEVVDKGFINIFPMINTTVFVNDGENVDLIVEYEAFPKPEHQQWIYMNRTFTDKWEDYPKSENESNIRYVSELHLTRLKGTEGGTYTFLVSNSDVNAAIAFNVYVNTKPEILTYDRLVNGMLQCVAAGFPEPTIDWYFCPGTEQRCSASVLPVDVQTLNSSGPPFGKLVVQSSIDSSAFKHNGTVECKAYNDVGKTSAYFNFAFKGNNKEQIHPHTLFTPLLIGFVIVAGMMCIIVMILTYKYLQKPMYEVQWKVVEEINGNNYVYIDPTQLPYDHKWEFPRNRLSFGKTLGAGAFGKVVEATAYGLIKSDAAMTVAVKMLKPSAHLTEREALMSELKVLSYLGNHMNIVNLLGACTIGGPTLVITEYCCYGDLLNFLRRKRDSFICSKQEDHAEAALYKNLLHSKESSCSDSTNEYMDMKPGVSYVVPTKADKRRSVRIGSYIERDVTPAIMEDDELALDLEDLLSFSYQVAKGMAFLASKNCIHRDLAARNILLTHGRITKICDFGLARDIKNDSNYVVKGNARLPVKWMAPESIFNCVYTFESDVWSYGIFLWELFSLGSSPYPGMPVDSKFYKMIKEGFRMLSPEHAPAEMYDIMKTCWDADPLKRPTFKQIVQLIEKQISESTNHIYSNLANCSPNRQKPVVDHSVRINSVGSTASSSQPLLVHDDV

Structure (SMILES): COc1cc(OC)c(Cl)c(-c2ccc3c(NC(=O)c4ccc(N5CCNC(C)(C)C5)cc4)n[nH]c3n2)c1Cl [3D185]
- inhibition at 0.01 µM ([1]; 10 nM): 19%
- inhibition at 0.1 µM ([1]; 100 nM): 35%
- inhibition at 1 µM ([1]; 1000 nM): 76%
- inhibition at 0.01 µM ([2]; 10 nM): -2%
- inhibition at 0.1 µM ([2]; 100 nM): 2%
- inhibition at 1 µM ([2]; 1000 nM): 11%
- inhibition at 0.01 µM ([3]; 10 nM): -4%
- inhibition at 0.1 µM ([3]; 100 nM): 2%
- inhibition at 1 µM ([3]; 1000 nM): 5%
- inhibition at 0.01 µM ([4]; 10 nM): 2%
- inhibition at 0.1 µM ([4]; 100 nM): 6%
- inhibition at 1 µM ([4]; 1000 nM): 3%
- inhibition at 0.01 µM ([5]; 10 nM): -4%
- inhibition at 0.1 µM ([5]; 100 nM): -3%
- inhibition at 1 µM ([5]; 1000 nM): 0%
- inhibition at 0.01 µM ([6]; 10 nM): 8%
- inhibition at 0.1 µM ([6]; 100 nM): 81%
- inhibition at 1 µM ([6]; 1000 nM): 98%
- inhibition at 0.01 µM ([7]; 10 nM): 0%
- inhibition at 0.1 µM ([7]; 100 nM): 10%
- inhibition at 1 µM ([7]; 1000 nM): 0%
- inhibition at 0.01 µM ([8]; 10 nM): -6%
- inhibition at 0.1 µM ([8]; 100 nM): 4%
- inhibition at 1 µM ([8]; 1000 nM): 7%
- inhibition at 0.01 µM ([9]; 10 nM): 5%
- inhibition at 0.1 µM ([9]; 100 nM): 6%
- inhibition at 1 µM ([9]; 1000 nM): 2%
- inhibition at 0.01 µM ([10]; 10 nM): 2%
- inhibition at 0.1 µM ([10]; 100 nM): -10%
- inhibition at 1 µM ([10]; 1000 nM): 8%
- IC50 [11]: > 1000 nM
